Test results: ChEMBL document CHEMBL1221401, “Antiproliferative compounds from Pongamiopsis pervilleana from the Madagascar Dry Forest” (J Nat Prod, 2010)

Tests used:
Assay type in all cases: functional, cell-based
[1] = system: A2780; assay: Antiproliferative activity against human A2780 cells after 96 hrs by CellTiter-Glo luminescent cell viability assay; conditions: A2780, 96 h
[2] = system: BT-549; assay: Antiproliferative activity against human BT549 cells after 96 hrs by CellTiter-Glo luminescent cell viability assay; conditions: BT-549, 96 h
[3] = system: DU-145; assay: Antiproliferative activity against human DU145 cells after 96 hrs by CellTiter-Glo luminescent cell viability assay; conditions: DU-145, 96 h
[4] = system: NCI-H460; assay: Antiproliferative activity against human NCI-H460 cells after 96 hrs by CellTiter-Glo luminescent cell viability assay; conditions: NCI-H460, 96 h
[5] = system: HCC 2998; assay: Antiproliferative activity against human HCC2998 cells after 96 hrs by CellTiter-Glo luminescent cell viability assay; conditions: HCC 2998, 96 h

Row | IC50 [1] | Compound | IC50 [2] | IC50 [3] | IC50 [4] | IC50 [5]
1 | > 54400 nM | C=C(CO)[C@H]1Cc2cc3c(cc2O1)OC[C@H]1c2cc4c(cc2O[C@@H]31)OCO4 |  |  |  | 
2 | 26500 nM | C=C(C)[C@H]1Cc2cc3c(cc2O1)OC[C@H]1c2cc4c(cc2O[C@@H]31)OCO4 [EMOROIDOCARPAN] |  |  |  | 
3 | 9500 nM | COc1c(-c2ccc3c(c2)OCO3)c(=O)oc2c3c(ccc12)OC(C)(C)C=C3 [PONGAVILLEANINE] |  |  |  | 

Row | Compound | IC50 [1] | IC50 [2] | IC50 [3] | IC50 [4] | IC50 [5]
4 | C=C(C)[C@H]1Cc2c(ccc3c2O[C@@H]2COc4cc(OC)c(OC)cc4[C@]2(O)C3=O)O1 [ROTENOLONE] | 950 nM | 1600 nM | 2700 nM | 2000 nM | 2900 nM
